“And” between values parts separate entries of the source, which are not always exact repeats. Equal entries are not always repeated.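 Each compound was tested at five concentrations against cells in 96-well plates for 48 hours. GI50 marks 50% less growth. TGI marks complete inhibition of growth.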

The test system of this experiment is MDA-MB-468 breast. The experiment can be described thus: NCI-60 cell line screen, 48 h.
In the case of `O=C1c2c(c3c4ccccc4n(CCCCCCBr)c3c3[nH]c4ccccc4c23)C(=O)N1O`, the GI50 is 2.82 µM and the TGI was 8.18 µM.

Turning to `CCOc1cccc(/C=N/NC(=O)c2ccccc2Nc2ccnc(C(F)(F)F)c2)c1O`, the GI50 is 0.271 µM and the TGI stood at 9.28 µM.

In the case of `CCNCCNc1cc(-c2ccc(C(=O)OC)cc2)c(C#N)c2nc3ccccc3n12`, the GI50 is 1.37 µM and the TGI amounted to 2.86 µM.

`COc1cccc(/C=N/NC(=O)c2ccccc2Nc2ccnc(C(F)(F)F)c2)c1O`: the GI50 was 0.218 µM and the TGI is 9.62 µM.

For the compound `CC[CH2][Pb]([CH2]CC)([CH2]CC)[O]C(=O)C(F)(F)F`, the GI50 was 0.0551 µM and the TGI was 0.153 µM.

Take `Cc1ccc(S(=O)(=O)N(CCOc2ccc(/C(N)=N/Cl)cc2)CCOc2ccc(/C(N)=N\Cl)cc2)cc1`: the GI50 is 3.98 µM and the TGI came out at 21.4 µM.

Turning to `C[C@]12CC[C@H](O)CC1=CC[C@@H]1[C@@H]2CC[C@]2(C)C(c3cccnc3)=CC[C@@H]12`, the GI50 was 26.9 µM and the TGI is over 100 µM.

As for `CCCCC(=O)OCC1OC(n2cnc3c(=S)nc[nH]c32)C(OC(=O)CCCC)C1OC(=O)CCCC` (centres undefined), the GI50 was 0.215 µM and the TGI came to 1.52 µM.

On to `NCC(=O)NS(=O)(=O)OC[C@H]1O[C@@H](n2cnc3c(N)ncnc32)[C@H](O)[C@@H]1O`, for which the GI50 is 0.742 µM and the TGI amounted to 2.56 µM.

For `COc1cc(OC)cc(-c2ccc(-c3ccc(C(=N)N)o3)o2)c1`, the GI50 is 2.4 µM and the TGI came out at 4.73 µM.

For the compound `O=C(Nc1ccc(N2CCNCC2)cc1)c1[nH]ncc1Nc1cc(Oc2ccccc2)ncn1`, the GI50 is 1.99 µM and the TGI was 4.83 µM.

Regarding `CCCCC/C(C=C(C#N)C#N)=C/c1ccccc1`, the GI50 was 10.2 µM and the TGI was 27.2 µM.

With `COc1ccc2c(c1)c(-c1nc(-c3cn(C)c4ncccc34)cs1)cn2CCCN1CCCCC1`, the GI50 is 1.8 µM and the TGI came to 3.55 µM.

Regarding `Cn1cc(-c2cnc3ccc(NC(=O)Nc4ccc(F)c(Br)c4)cc3n2)cn1`, the GI50 is 1.41 µM and the TGI is 3.86 µM.

With `COc1cc(/C=C/c2cc(/C=C/c3ccc(O)c(OC)c3)n(-c3ccccc3)n2)ccc1O`, the GI50 is 0.271 µM and the TGI was 0.908 µM.

For `Nc1ccn(C2O[C@H](CO)[C@@H](O)[C@@H]2O)c(=O)n1` (some centres undefined), the GI50 was over 100 µM and the TGI is over 100 µM.

For the compound `CN(C)CCNc1cc(-c2ccccc2)nc2ccccc12`, the GI50 was 3.85 µM and the TGI is 16.8 µM.

In the case of `CNC(=O)OCc1c(COC(=O)NC)c(-c2ccc(Cl)c(Cl)c2)n2c1SCC2`, the GI50 was 0.264 µM and the TGI amounted to 1.27 µM.

Turning to `O=C1c2cccc(NCCN=Cc3cc(O)ccc3O)c2C(=O)c2c(NCCN=Cc3cc(O)ccc3O)cccc21`, the GI50 is 0.584 µM and the TGI worked out at 2.37 µM.

Consider `Cc1ccc(CS/C(=C\c2ccc([N+](=O)[O-])cc2)C(=O)c2ccc(F)cc2)cc1`, for which the GI50 was 3.41 µM and the TGI is 16.4 µM.

On to `O=C(NCCOCCOCCNc1cccc2c1C(=O)N(C1CCCNC1=O)C2=O)c1cc2c(o1)C(=O)c1ccccc1C2=O` (centres undefined), for which the GI50 was 1.61 µM and the TGI stood at 4.43 µM.

With `COC(=O)CCCCN=Cc1c(O)c(O)c(C(C)C)c2cc(C)c(-c3c(C)cc4c(C(C)C)c(O)c(O)c(C=NCCCCC(=O)OC)c4c3O)c(O)c12`, the GI50 was 0.78 µM and the TGI came to 3.06 µM.

Take `O=C1/C(=C/c2ccc(Br)cc2)C=C(c2ccccc2)N1CCc1ccccc1`: the GI50 is 1.27 µM and the TGI was 7.8 µM.

Consider `COc1cccc(-c2cc(=O)c3cc(N(C)C)ccc3[nH]2)c1`, for which the TGI is > 100 µM and 59.2 µM.

Take `N#CSCC1CC(O)(c2ccccc2)C(c2ccccc2)C(c2ccc(Cl)cc2)O1` (centres undefined): the GI50 was 1.44 µM and the TGI came to 2.85 µM.

As for `Cc1c(F)c(N)c2c(=O)cc(-c3ccc(NC(=O)CN(C)C)c(F)c3)oc2c1F`, the GI50 was 0.0577 µM and the TGI was 0.394 µM.

Regarding `CC1=C(C(=O)Nc2ccc3[nH]ncc3c2)C(c2ccc3ccccc3c2)CC(=O)N1` (centres undefined), the GI50 is 13.9 µM and the TGI is over 25 µM.

In the case of `COc1cc(O)c2c(c1)/C=C/C[C@H](O)[C@H](O)C(=O)/C=C\C[C@H](C)OC2=O`, the GI50 is 3.85 µM and 5.6 µM; the TGI was 13.3 µM and 20.7 µM.

With `O=[N+]([O-])/C=C\c1ccc(Cl)c(Cl)c1`, the GI50 was 1.79 µM and the TGI came out at 3.76 µM.

On to `Cn1c(N2NC(=O)C(N=Nc3ccc(S(N)(=O)=O)cc3)C2=O)nc(-c2ccco2)c(C#N)c1=O` (centres undefined), for which the GI50 was 1.61 µM and the TGI was determined as 6.73 µM.

Take `COc1ccc(/C(=C2\O[C@@H]([C@H]3COC(C)(C)O3)[C@H]3OC(C)(C)O[C@@H]23)c2cc(OC)c(OC)c(OC)c2)cc1O`: the GI50 was 14.5 µM and the TGI worked out at 34.1 µM.

Take `CN(C)CCNC(=O)c1ccc(-c2nc3ccc4[nH]ncc4c3c3c2CCC3)cc1`: the GI50 was 0.448 µM and the TGI was found to be 1.49 µM.

In the case of `O=C(CI)NC1Oc2ccccc2-c2oc(=O)c(-c3ccccc3)cc21` (centres undefined), the GI50 was 1.79 µM and the TGI was 4.32 µM.

With `O=c1oc2ccc(F)cc2c(=O)n1-c1ccc(F)cc1F`, the GI50 was 2.76 µM and the TGI was determined as 7.78 µM.

Take `COc1ccc2[nH]c(O)c(/C=c3/cc4c(c(-c5cc(OC)c(OC)c(OC)c5)n3)=Nc3ccccc3-4)c2c1`: the GI50 was 2.62 µM and the TGI was found to be 11.7 µM.

Consider `CC1=C(CCCNS(C)(=O)=O)C2=C(C)C3(CC3)[C@@](C)(O)C(=O)C2=C1`, for which the GI50 was 0.354 µM and the TGI is 1.66 µM.

Take `CN1CCN(Cc2ccc(NC(=O)c3cncc(C#Cc4cnc(N)c5ccc(C#N)cc45)c3)cc2C(F)(F)F)CC1`: the GI50 is 0.0608 µM and the TGI is 0.627 µM.

With `Oc1ccc(CSc2nnc(-c3cnccn3)n2-c2ccccc2)c2cccnc12`, the GI50 was 0.97 µM and the TGI was over 20 µM.

For the compound `Cc1ccc2c(c1)C(=O)/C(=C/c1ncc([N+](=O)[O-])n1C)O2`, the GI50 was 1.85 µM and the TGI came out at 4.34 µM.

Turning to `CCCCCc1ccc(S(=O)(=O)Nc2cccc(-c3csc(NC(=O)CCCCCN4CCN(C)CC4)n3)c2)cc1`, the GI50 is 1.79 µM and the TGI was found to be 3.46 µM.

`N#C/C(=C1C=C/C(=N/O)C(Br)=C/1)c1ccccc1`: the GI50 is 1.53 µM and the TGI was determined as 15 µM.

For the compound `COc1cc(/C=N/n2cnc3oc(-c4ccccc4)cc3c2=N)cc(CN2CCCC2)c1O`, the GI50 is 2.01 µM and the TGI is 5.08 µM.

In the case of `O=C(CN1CCOCC1)Nc1ccc(Cn2nnc3c2C(=O)c2nnn(Cc4ccc(NC(=O)CN5CCOCC5)cc4)c2C3=O)cc1`, the GI50 is 0.208 µM and the TGI was 0.55 µM.

With `COc1ccc(C2=NN(C(=O)c3cc(OC)c(OC)c(OC)c3)C(c3ccc(C#N)cc3)C2)cc1OC` (centres undefined), the GI50 is 0.419 µM and the TGI stood at 2.89 µM.

As to `O=C(O)CCCCC(CCSCc1ccccc1)SCc1ccccc1` (centres undefined), the GI50 is 45.1 µM and the TGI is over 91.4 µM.
